{"source": "paper PMC11879040", "about": "“Advancing systemic toxicity risk assessment: Evaluation of a NAM-based toolbox approach” (Toxicological Sciences, 2024)", "key": {"MCF7 cells": {"tested_on": "MCF7 cells", "experiment": "High-throughput transcriptomics (HTTr, TempO-Seq), MCF7, 24 h", "format": "cell-based, human", "method": "(§1) HepG2, HepaRG, and MCF7 cells were treated with each compound for 24 h across a dose range of 7 concentrations and lysed using TempO-Seq lysis buffer (BioSpyder Technologies, proprietary kit, see [Middleton et al. 2022] for method details). Sequencing was performed using TempO-Seq (BioClavis) version 2 of the human whole transcriptome panel and analyzed as described previously in Middleton et al."}, "HepaRG cells": {"tested_on": "HepaRG cells", "experiment": "High-throughput transcriptomics (HTTr, TempO-Seq), HepaRG, 24 h", "format": "cell-based, human", "method": "as §1"}, "HepG2 cells [1]": {"tested_on": "HepG2 cells", "experiment": "High-throughput transcriptomics (HTTr, TempO-Seq), HepG2, 24 h", "format": "cell-based, human", "method": "as §1"}, "[2]": {"tested_on": "63 targets with known safety liabilities", "experiment": "In vitro pharmacological profiling (IPP) panel, screening at 10 or 100 µM and dose response, minimum IC50/AC50", "format": "biochemical", "conditions": "lowest AC50 across IPP panel (systemic targets); cell_type -; read-out: ipp_lowest_ac50_systemic PoD"}, "HepG2 cells [3]": {"tested_on": "HepG2 cells", "experiment": "Cell stress panel (CSP), 24 h, 8 concentrations, BIFROST global PoD", "format": "cell-based", "conditions": "HepG2; cell stress panel PoD", "method": "Compounds were tested using the previously developed cell stress panel ([Hatherell et al. 2020]) and the expanded biomarker panel outlined in Middleton et al. HepG2 cells were treated with all compounds for 24 h across 8 concentrations prior to biomarker analysis. The same plate layout and number of replicates (3 biological and 2 technical) were used as previously for each assay within the panel."}, "[4]": {"tested_on": "Gamma-aminobutyric acid receptor subunit alpha-1 BZD site, GABRA1A (r)", "format": "binding, rat", "conditions": "IPP screening at 100 uM; control diazepam"}, "[5]": {"target": "T1, Adenosine receptor A2a, ADORA2A (h) (Homo sapiens, UniProt P29274)", "T1 construct": "purchased Eurofins Cerep (SafetyScreen44-based IPP panel)", "T1 sequence (P29274 whole entry)": "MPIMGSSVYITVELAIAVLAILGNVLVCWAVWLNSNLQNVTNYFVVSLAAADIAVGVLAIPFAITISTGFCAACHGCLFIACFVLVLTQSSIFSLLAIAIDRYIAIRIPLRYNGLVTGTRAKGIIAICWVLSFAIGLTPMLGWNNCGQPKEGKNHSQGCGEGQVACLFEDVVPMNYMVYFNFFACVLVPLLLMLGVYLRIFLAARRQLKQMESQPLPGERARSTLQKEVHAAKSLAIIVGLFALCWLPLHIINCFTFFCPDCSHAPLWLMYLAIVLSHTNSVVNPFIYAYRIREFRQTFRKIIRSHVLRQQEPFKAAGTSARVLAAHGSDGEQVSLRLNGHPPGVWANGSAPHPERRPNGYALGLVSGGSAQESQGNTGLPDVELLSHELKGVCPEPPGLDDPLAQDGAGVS", "experiment": "IPP ADORA2A binding (agonist radioligand)", "conditions": "IPP screening at 100 uM; control NECA"}, "[6]": {"experiment": "Assignment of risk classifications to benchmark chemical-exposure scenarios", "conditions": "Dermal; […]; Body lotion; Exp1; from table S1"}, "Tubulin (r)": {"tested_on": "Tubulin (r)", "experiment": "IPP Tubulin binding", "design": "species or system rat", "conditions": "100 uM; ligand/control Colchicine"}, "[7]": {"tested_on": "Potassium Voltage-Gated Channel Kv non-selective, KCNQ1 (r)", "experiment": "IPP KCNQ1 binding (antagonist radioligand)", "design": "species or system rat", "conditions": "IPP screening at 100 uM; control α-dendrotoxin"}, "[8]": {"tested_on": "Glutamate receptor ionotropic NMDA 1 non-selective, GRIN1 (r)", "conditions": "IPP screening at 100 uM; control CGS 19755"}, "[9]": {"tested_on": "Thyroid hormone receptor alpha, THRA (h)", "experiment": "IPP THRA coactivator recruitment (agonist)", "format": "biochemical, human", "conditions": "100 uM; agonist; T3; * denotes assay interference (2-Amino-6-chloro-4-nitrophenol, HC Red 3)"}, "[10]": {"tested_on": "Sodium channel protein type 5 subunit alpha (site 2), SCN5A (r)", "format": "binding, rat", "conditions": "IPP screening at 100 uM; control veratridine"}, "rat": {"tested_on": "rat", "conditions": "ref [19-22], cited from earlier work"}, "[11]": {"conditions": "MCF-7, HTTr minimum pathway BMD(L)"}, "[12]": {"conditions": "HepaRG, HTTr minimum pathway BMD(L)"}, "[13]": {"conditions": "HepG2, HTTr minimum pathway BMD(L)"}}, "note": "Counter-ions that a name gives are not always drawn. Like-named read-outs stand apart in the source and are kept apart here."}
{"smiles": "CCCCOC(=O)c1ccc(O)cc1", "note": "[Butyl_4-hydroxybenzoate]", "values": [{"measurement": "pod_httr_bifrost PoD", "setting": "MCF7 cells; MCF-7, HTTr BIFROST PoD", "value": 0.02978, "unit": "µM"}, {"measurement": "podl_path_minbmd PoD", "setting": "MCF7 cells; [11]", "value": 0.1304, "unit": "µM"}, {"measurement": "pod_httr_bifrost PoD", "setting": "HepaRG cells; HepaRG, HTTr BIFROST PoD", "value": 66.4882, "unit": "µM"}, {"measurement": "podl_path_minbmd PoD", "setting": "HepaRG cells; [12]", "value": 120, "unit": "µM"}, {"measurement": "pod_httr_bifrost PoD", "setting": "HepG2 cells [1]; HepG2, HTTr BIFROST PoD", "value": 10.9882, "unit": "µM"}, {"measurement": "podl_path_minbmd PoD", "setting": "HepG2 cells [1]; [13]", "value": 46.8548, "unit": "µM"}, {"measurement": "AC50", "setting": "[2]", "value": 6.58, "unit": "µM"}]}
{"smiles": "COc1ccc(O)c(C(C)(C)C)c1", "note": "[Butylated_Hydroxyanisole]", "values": [{"measurement": "pod_httr_bifrost PoD", "setting": "MCF7 cells; MCF-7, HTTr BIFROST PoD", "value": 8.844, "unit": "µM"}, {"measurement": "podl_path_minbmd PoD", "setting": "MCF7 cells; [11]", "value": 25.2807, "unit": "µM"}, {"measurement": "pod_httr_bifrost PoD", "setting": "HepaRG cells; HepaRG, HTTr BIFROST PoD", "value": 6.323, "unit": "µM"}, {"measurement": "podl_path_minbmd PoD", "setting": "HepaRG cells; [12]", "value": 13.7136, "unit": "µM"}, {"measurement": "pod_httr_bifrost PoD", "setting": "HepG2 cells [1]; HepG2, HTTr BIFROST PoD", "value": 9.643, "unit": "µM"}, {"measurement": "podl_path_minbmd PoD", "setting": "HepG2 cells [1]; [13]", "value": 21.4191, "unit": "µM"}, {"measurement": "AC50", "setting": "[2]", "value": 0.6, "unit": "µM"}]}
{"smiles": "O=CCCCC=O", "note": "[Glutaraldehyde Solution]", "values": [{"measurement": "pod_cell_stress PoD", "setting": "HepG2 cells [3]", "value": 37.601, "unit": "µM"}]}
{"smiles": "O=CCCCC=O", "note": "[Glutaraldehyde_Solution]", "values": [{"measurement": "pod_httr_bifrost PoD", "setting": "MCF7 cells; MCF-7, HTTr BIFROST PoD", "value": 0.2467, "unit": "µM"}, {"measurement": "podl_path_minbmd PoD", "setting": "MCF7 cells; [11]", "value": 50, "unit": "µM"}, {"measurement": "pod_httr_bifrost PoD", "setting": "HepaRG cells; HepaRG, HTTr BIFROST PoD", "value": 136.152, "unit": "µM"}, {"measurement": "podl_path_minbmd PoD", "setting": "HepaRG cells; [12]", "value": 500, "unit": "µM"}, {"measurement": "pod_httr_bifrost PoD", "setting": "HepG2 cells [1]; HepG2, HTTr BIFROST PoD", "value": 19.467, "unit": "µM"}, {"measurement": "podl_path_minbmd PoD", "setting": "HepG2 cells [1]; [13]", "value": 50, "unit": "µM"}]}
{"smiles": "CN(C)[C@@H]1C(O)=C(C(N)=O)C(=O)[C@@]2(O)C(O)=C3C(=O)c4c(O)cccc4[C@@](C)(O)[C@H]3[C@H](O)[C@@H]12", "note": "[Oxytetracycline_hydrochloride]", "values": [{"measurement": "pod_httr_bifrost PoD", "setting": "MCF7 cells; MCF-7, HTTr BIFROST PoD", "value": 0.6783, "unit": "µM"}, {"measurement": "podl_path_minbmd PoD", "setting": "MCF7 cells; [11]", "value": 10.8661, "unit": "µM"}, {"measurement": "pod_cell_stress PoD", "setting": "HepG2 cells [3]", "value": 2.447, "unit": "µM"}, {"measurement": "pod_httr_bifrost PoD", "setting": "HepaRG cells; HepaRG, HTTr BIFROST PoD", "value": 4.2, "unit": "µM"}, {"measurement": "podl_path_minbmd PoD", "setting": "HepaRG cells; [12]", "value": 50.4384, "unit": "µM"}, {"measurement": "pod_httr_bifrost PoD", "setting": "HepG2 cells [1]; HepG2, HTTr BIFROST PoD", "value": 1.6523, "unit": "µM"}, {"measurement": "podl_path_minbmd PoD", "setting": "HepG2 cells [1]; [13]", "value": 24.772, "unit": "µM"}]}
{"smiles": "CC(C)(CO)C(O)C(=O)NCCCO", "note": "(stereo not drawn) [Panthenol, 2,4-Dihydroxy-N-(3-hydroxypropyl)-3,3-dimethylbutanamide]", "values": [{"measurement": "Specific binding", "setting": "[4]", "value": -1.9, "unit": "%"}, {"measurement": "pod_httr_bifrost PoD", "setting": "MCF7 cells; MCF-7, HTTr BIFROST PoD", "value": 767.225, "unit": "µM"}, {"measurement": "podl_path_minbmd PoD", "setting": "MCF7 cells; [11]", "value": 20000, "unit": "µM"}, {"measurement": "pod_cell_stress PoD", "setting": "HepG2 cells [3]", "value": 18298.9, "unit": "µM"}, {"measurement": "Specific binding", "setting": "[5]", "value": 7.3, "unit": "%"}, {"measurement": "risk", "setting": "[6]", "value": 0}, {"measurement": "IPP screening %, Specific binding", "setting": "Tubulin (r)", "value": -5, "unit": "%"}, {"measurement": "Specific binding", "setting": "[7]", "value": -4.3, "unit": "%"}, {"measurement": "HepaRG HTTr: concentration of single responding probe", "setting": "HepaRG cells; BIFROST probe-level PoD", "value": "< 100", "unit": "µM"}, {"measurement": "HepaRG HTTr: next lowest probe", "setting": "HepaRG cells; BIFROST probe-level PoD", "value": 5100, "unit": "µM"}, {"measurement": "pod_httr_bifrost PoD", "setting": "HepaRG cells; HepaRG, HTTr BIFROST PoD", "value": 65.9596, "unit": "µM"}, {"measurement": "podl_path_minbmd PoD", "setting": "HepaRG cells; [12]", "value": 4552.59, "unit": "µM"}, {"measurement": "Specific binding", "setting": "[8]", "value": 0.2, "unit": "%"}, {"measurement": "IPP screening %, Coactivator recruitment", "setting": "[9]", "value": 2.0, "unit": "%"}, {"measurement": "pod_httr_bifrost PoD", "setting": "HepG2 cells [1]; HepG2, HTTr BIFROST PoD", "value": 7221.82, "unit": "µM"}, {"measurement": "podl_path_minbmd PoD", "setting": "HepG2 cells [1]; [13]", "value": 20000, "unit": "µM"}, {"measurement": "Specific binding", "setting": "[10]", "value": 27.9, "unit": "%"}]}
{"smiles": "O=S(=O)([O-])NC1CCCCC1.[Na+]", "note": "[Sodium_Cyclamate]", "values": [{"measurement": "pod_httr_bifrost PoD", "setting": "MCF7 cells", "value": 202.953, "unit": "µM"}, {"measurement": "podl_path_minbmd PoD", "setting": "MCF7 cells", "value": 1200, "unit": "µM"}, {"measurement": "pod_httr_bifrost PoD", "setting": "HepaRG cells", "value": 485.622, "unit": "µM"}, {"measurement": "podl_path_minbmd PoD", "setting": "HepaRG cells", "value": 442.002, "unit": "µM"}, {"measurement": "pod_httr_bifrost PoD", "setting": "HepG2 cells [1]", "value": 12.9839, "unit": "µM"}, {"measurement": "podl_path_minbmd PoD", "setting": "HepG2 cells [1]", "value": 1200, "unit": "µM"}]}
{"smiles": "O=C(O)c1ccc2c(c1)C(=O)OC2=O", "note": "[Trimellitic_anhydride]", "values": [{"measurement": "pod_httr_bifrost PoD", "setting": "MCF7 cells; MCF-7, HTTr BIFROST PoD", "value": 423.806, "unit": "µM"}, {"measurement": "podl_path_minbmd PoD", "setting": "MCF7 cells; [11]", "value": 854.401, "unit": "µM"}, {"measurement": "pod_cell_stress PoD", "setting": "HepG2 cells [3]", "value": 34.7606, "unit": "µM"}, {"measurement": "pod_httr_bifrost PoD", "setting": "HepaRG cells; HepaRG, HTTr BIFROST PoD", "value": 236.503, "unit": "µM"}, {"measurement": "podl_path_minbmd PoD", "setting": "HepaRG cells; [12]", "value": 100.049, "unit": "µM"}, {"measurement": "pod_httr_bifrost PoD", "setting": "HepG2 cells [1]; HepG2, HTTr BIFROST PoD", "value": 404.103, "unit": "µM"}, {"measurement": "podl_path_minbmd PoD", "setting": "HepG2 cells [1]; [13]", "value": 1078.54, "unit": "µM"}]}
{"smiles": "NC1CCCCC1", "note": "[cyclohexylamine]", "values": [{"measurement": "NOAEL", "setting": "rat; 90 day rat study, cyclohexylamine administered", "value": 100, "unit": "mg/kg bw/day"}, {"measurement": "dose at which testicular toxicity was observed", "setting": "rat; testicular atrophy and giant cell formation", "value": "≥ 200", "unit": "mg/kg bw/day"}]}
